The text below walks through data of PubChem BioAssay (NCI).

Molecules are shown by their SMILES.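 96-well plates; 48 h exposure; 5 concentrations. Endpoints by linear interpolation between flanking doses. Not reached: highest tested concentration assigned. Definition used: TGI = concentration required for complete inhibition of growth.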

Some test systems named below: K-562 leukemia; HCT-15 colon; SF-539 CNS; HOP-62 NSCLC; T-47D breast; RXF 393 renal; ACHN renal; IGROV1 ovarian; MOLT-4 leukemia; KM12 colon.
Test in all cases: NCI tumour cell line growth inhibition, 48 h

In the case of `Cc1n(Cc2ccccc2)nc2sc(N)n[n+]12`, the TGI with K-562 leukemia, in the experiment with HCT-15 colon, in the experiment with SF-539 CNS, in the experiment with HOP-62 NSCLC, with T-47D breast and in the experiment with RXF 393 renal was over 100 µM throughout. The TGI in the experiment with ACHN renal, with IGROV1 ovarian, in the experiment with MOLT-4 leukemia and with KM12 colon was over 100 µM each time.
Consider `CCOC(=O)c1c(NC(=S)Nc2ccccc2)sc2c1CCOC2`, for which the TGI with K-562 leukemia, in the experiment with HCT-15 colon, in the experiment on SF-539 CNS, in the experiment on HOP-62 NSCLC, in the experiment on T-47D breast and in the experiment on RXF 393 renal was over 100 µM each time. For the same molecule, the TGI in the experiment on ACHN renal, in the experiment on IGROV1 ovarian, in the experiment on MOLT-4 leukemia and in the experiment on KM12 colon was over 100 µM each time.
For `c1ccc(CSC2(SCc3ccccc3)CCCCC2)cc1`, the TGI in the experiment on K-562 leukemia, with HCT-15 colon, with SF-539 CNS, in the experiment with HOP-62 NSCLC, in the experiment on T-47D breast and in the experiment with RXF 393 renal was over 10 µM throughout. Moreover, the TGI with ACHN renal, in the experiment with IGROV1 ovarian, with MOLT-4 leukemia and with KM12 colon was over 10 µM each time.
As to `O=C(c1ccc(Cl)cc1)N(C(=S)OCCOc1ccccc1)c1ccccc1`, the TGI is over 100 µM in the experiment on K-562 leukemia; 42.2 µM in the experiment on HCT-15 colon; 34 µM in the experiment with SF-539 CNS; 54 µM in the experiment on HOP-62 NSCLC; 56.5 µM in the experiment on T-47D breast; 39.3 µM with RXF 393 renal. Further, the TGI in the experiment with ACHN renal is 47.9 µM; with IGROV1 ovarian, 38.1 µM; in the experiment on MOLT-4 leukemia it was 59.8 µM; with KM12 colon it was 39.4 µM.
For the molecule `O=C(c1ccccc1)N1C(=S)N(c2ccccn2)C(=Nc2ccccc2)C1=Nc1ccccc1`, the TGI is over 60.9 µM with K-562 leukemia; 14.9 µM in the experiment with HCT-15 colon; 44.9 µM in the experiment on SF-539 CNS; over 84 µM with HOP-62 NSCLC; over 62.1 µM in the experiment on T-47D breast; 25.9 µM with RXF 393 renal. The TGI is 35.3 µM in the experiment on ACHN renal, over 64.1 µM in the experiment with IGROV1 ovarian, over 54.8 µM in the experiment with MOLT-4 leukemia and 19 µM with KM12 colon.
In the case of `C=C1C[C@H](O)[C@H](Br)C(C)(C)C12CCC(C)(Cl)C(Br)C2` (stereo not given in full), the TGI in the experiment on K-562 leukemia turned out to be 56.2 µM; with HCT-15 colon, 19.3 µM; in the experiment on SF-539 CNS, 42.2 µM; with HOP-62 NSCLC it was 12.2 µM; in the experiment on T-47D breast, 13.5 µM; in the experiment on RXF 393 renal, 10.6 µM. Besides, the TGI with ACHN renal stood at 14.8 µM; in the experiment with IGROV1 ovarian, 18.8 µM; with MOLT-4 leukemia it was 75 µM; with KM12 colon it was 9.88 µM.
For `CN(C)c1ccc(C=C2C(=O)NC(=S)NC2=O)c2ccccc12`, the TGI was over 100 µM in the experiment on K-562 leukemia; over 100 µM in the experiment with HCT-15 colon; over 100 µM with SF-539 CNS; over 100 µM in the experiment on HOP-62 NSCLC; over 100 µM in the experiment with T-47D breast; 76.4 µM in the experiment on RXF 393 renal. In addition, the TGI in the experiment on ACHN renal, with IGROV1 ovarian, in the experiment on MOLT-4 leukemia and with KM12 colon was over 100 µM in each case.
In the case of `COc1ccc(-c2oc3c(OC)c(OC)cc(O)c3c(=O)c2OC)cc1`, the TGI with K-562 leukemia is over 100 µM; in the experiment on HCT-15 colon it was over 100 µM; with SF-539 CNS it was 72.5 µM; with HOP-62 NSCLC, over 100 µM; with T-47D breast, over 100 µM; with RXF 393 renal, over 100 µM. The TGI in the experiment with ACHN renal, with IGROV1 ovarian, in the experiment with MOLT-4 leukemia and in the experiment on KM12 colon was over 100 µM each time.
With `c1ccc([I+]c2ccccc2)cc1`, the TGI with K-562 leukemia, in the experiment with HCT-15 colon, with SF-539 CNS, with HOP-62 NSCLC, in the experiment on T-47D breast and in the experiment on RXF 393 renal was over 100 µM in each case. The TGI with ACHN renal, in the experiment with IGROV1 ovarian, with MOLT-4 leukemia and in the experiment with KM12 colon was over 100 µM in each case.
On to `CN(Cc1cnc2c(N)nc(N)nc2n1)c1ccc(Cl)cc1`, for which the TGI in the experiment on K-562 leukemia is over 100 µM; in the experiment with HCT-15 colon it was over 100 µM; with SF-539 CNS, 70.9 µM; with HOP-62 NSCLC it was over 100 µM; in the experiment with T-47D breast it was over 100 µM; with RXF 393 renal it was 61.5 µM. Moreover, the TGI in the experiment with ACHN renal, with IGROV1 ovarian, in the experiment with MOLT-4 leukemia and with KM12 colon was over 100 µM each time.
`O=C(CC(Cl)=C(Cl)Cl)c1ccccc1`: the TGI in the experiment on K-562 leukemia was 50 µM; in the experiment on HCT-15 colon it was 70.6 µM; in the experiment with SF-539 CNS, over 100 µM; in the experiment on HOP-62 NSCLC, over 100 µM; with T-47D breast, over 100 µM; in the experiment with RXF 393 renal, 63.8 µM. The TGI with ACHN renal was over 100 µM; in the experiment on IGROV1 ovarian, over 100 µM; in the experiment with MOLT-4 leukemia, 28.6 µM; with KM12 colon, over 100 µM.
